pEC50: −log10 of the molar value.
What was measured:
human DHODH = target: T1, human DHODH (Homo sapiens, UniProt Q02127); experiment: DHODH Enzymatic Assay; assay type: biochemical; settings: purified human DHODH; DCIP absorbance, end-point mode
T1 construct: purchased Proteros PR-0044
Experimental: To detect DHODH enzyme activities, dichloroindophenol (DCIP) is added as the final electron acceptor in the assay. DCIP can accept electrons from the reduced coenzyme Q generated in the assay, or from dihydroorotate (DHO) via FMN by binding presumably to the ubiquinone pocket. […] The assay buffer contained […], pH 7.5, 150 mM NaCl, 0.5 mM EDTA, and 0.1% Triton X-100 in MilliQ water. Substrate consisting of 20 mM DHO, 5 mM CoQ6, and 1 mM DCIP in assay buffer, initiates the reaction. […] Absorbance measurements were obtained using the BMG Phera Star plate-reading spectrophotomer. Purified human DHODH was purchased from Proteros (cat. No. PR-0044). Chemicals were purchased from Sigma-Aldrich, Teknova, and Avanti Polar Lipids. Liquid handling was performed using Labcyte Echo and Formulatrix Tempest.

MOLM-13 cells = experiment: MOLM-13 Cellular Assay; assay type: cell-based; settings: Homo sapiens, 72 hours exposure, cell viability by CellTiter-Glo
Experimental: The day prior to assay set-up, cells were pelleted, resuspended in fresh media, counted, and cells were plated at 0.4×10^6 cell/mL in a T150 flask. […] Cells were exposed to different concentrations of test compounds at 37° C., 5% CO2 for 72 hours immediately after seeding.

T1 sequence (Q02127 whole entry): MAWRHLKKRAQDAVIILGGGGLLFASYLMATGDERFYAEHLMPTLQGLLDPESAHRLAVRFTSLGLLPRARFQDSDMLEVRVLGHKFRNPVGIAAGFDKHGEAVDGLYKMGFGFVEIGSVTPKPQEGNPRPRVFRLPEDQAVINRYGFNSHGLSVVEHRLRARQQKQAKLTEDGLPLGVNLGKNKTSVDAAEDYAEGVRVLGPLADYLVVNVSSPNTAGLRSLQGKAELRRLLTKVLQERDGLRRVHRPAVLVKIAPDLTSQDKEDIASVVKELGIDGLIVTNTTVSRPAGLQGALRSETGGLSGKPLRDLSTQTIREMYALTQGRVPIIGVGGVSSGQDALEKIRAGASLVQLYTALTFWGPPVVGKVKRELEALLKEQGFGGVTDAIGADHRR

Row | SMILES | pEC50 (human DHODH) | pEC50 (MOLM-13 cells)
1 | CCn1c(CO)nn(-c2nc(O[C@@H](C)C(F)(F)F)c(C(=O)Nc3c(C)ccnc3C(F)F)cc2F)c1=O [Example 13, (S)-N-(2-(Difluoromethyl)-4-methylpyridin-3-yl)-6-(4-ethyl-3-(hydroxymethyl)-5-oxo-4,5-dihydro-1H-1,2,4-triazol-1-yl)-5-fluoro-2-((1,1,1-trifluoropropan-2-yl)oxy)nicotinamide] | 8.66 | 8.48
2 | CCn1c(CO)nn(-c2nc(O[C@@H](C)C(F)(F)F)c(C(=O)Nc3cnsc3Br)cc2F)c1=O [Example 15, (S)-N-(5-Bromoisothiazol-4-yl)-6-(4-ethyl-3-(hydroxymethyl)-5-oxo-4,5-dihydro-1H-1,2,4-triazol-1-yl)-5-fluoro-2-((1,1,1-trifluoropropan-2-yl)oxy)nicotinamide] | 8.51 | 8.60
3 | CCn1c(CO)nn(-c2nc(O[C@@H](C)C(F)(F)F)c(C(=O)Nc3csnc3C)cc2F)c1=O [Example 17, (S)-6-(4-Ethyl-3-(hydroxymethyl)-5-oxo-4,5-dihydro-1H-1,2,4-triazol-1-yl)-5-fluoro-N-(3-methylisothiazol-4-yl)-2-((1,1,1-trifluoropropan-2-yl)oxy)nicotinamide] | 7.51 | 7.06
4 | CCn1c(CO)nn(-c2nc(O[C@@H](C)C(F)(F)F)c(C(=O)Nc3c(C)ccnc3C)cc2F)c1=O [Example 18, (S)-N-(2,4-Dimethylpyridin-3-yl)-6-(4-ethyl-3-(hydroxymethyl)-5-oxo-4,5-dihydro-1H-1,2,4-triazol-1-yl)-5-fluoro-2-((1,1,1-trifluoropropan-2-yl)oxy)nicotinamide] | 8.43 | 7.89
5 | CCn1c(CO)nn(-c2nc(O[C@@H](C)C(F)(F)F)c(C(=O)Nc3cc[nH]c(=O)c3Cl)cc2F)c1=O [Example 20, (S)-N-(3-Chloro-2-oxo-1,2-dihydropyridin-4-yl)-6-(4-ethyl-3-(hydroxymethyl)-5-oxo-4,5-dihydro-1H-1,2,4-triazol-1-yl)-5-fluoro-2-((1,1,1-trifluoropropan-2-yl)oxy)nicotinamide] | 8.37 | 6.97
6 | CCn1c(CO)nn(-c2nc(O[C@@H](C)C(F)(F)F)c(C(=O)Nc3nc(OC)ccc3Cl)cc2F)c1=O [Example 21, (S)-N-(3-chloro-6-methoxypyridin-2-yl)-6-(4-ethyl-3-(hydroxymethyl)-5-oxo-4,5-dihydro-1H-1,2,4-triazol-1-yl)-5-fluoro-2-((1,1,1-trifluoropropan-2-yl)oxy)nicotinamide] | 8.92 | 8.74
7 | CCn1c(CO)nn(-c2nc(O[C@@H](C)C(F)(F)F)c(C(=O)Nc3ccnc(OC)c3Cl)cc2F)c1=O [Example 24, (S)-N-(3-Chloro-2-methoxypyridin-4-yl)-6-(4-ethyl-3-(hydroxymethyl)-5-oxo-4,5-dihydro-1H-1,2,4-triazol-1-yl)-5-fluoro-2-((1,1,1-trifluoropropan-2-yl)oxy)nicotinamide] | 7.97 | 8.00
8 | CCn1c(CO)nn(-c2nc(O[C@@H](C)C(F)(F)F)c(C(=O)Nc3c(C)n[nH]c3Cl)cc2F)c1=O [Example 25, (S)-N-(5-Chloro-3-methyl-1H-pyrazol-4-yl)-6-(4-ethyl-3-(hydroxymethyl)-5-oxo-4,5-dihydro-1H-1,2,4-triazol-1-yl)-5-fluoro-2-((1,1,1-trifluoropropan-2-yl)oxy)nicotinamide] | 9.08 | 8.52

Next, values leading:

Row | pEC50 (human DHODH) | pEC50 (MOLM-13 cells) | SMILES
9 | 7.64 | 7.22 | CCn1c(CO)nn(-c2nc(O[C@@H](C)C(F)(F)F)c(C(=O)Nc3ccncc3Cl)cc2F)c1=O [Example 10, (S)-N-(3-Chloropyridin-4-yl)-6-(4-ethyl-3-(hydroxymethyl)-5-oxo-4,5-dihydro-1H-1,2,4-triazol-1-yl)-5-fluoro-2-((1,1,1-trifluoropropan-2-yl)oxy)nicotinamide]
10 | > 8.77 | 9.30 | CCn1c(CO)nn(-c2nc(O[C@@H](C)C(F)(F)F)c(C(=O)Nc3cc(C)ccc3F)cc2F)c1=O [Example 11, (S)-6-(4-Ethyl-3-(hydroxymethyl)-5-oxo-4,5-dihydro-1H-1,2,4-triazol-1-yl)-5-fluoro-N-(2-fluoro-5-methylphenyl)-2-((1,1,1-trifluoropropan-2-yl)oxy)nicotinamide]
11 | 6.49 | 6.17 | CCn1c(CO)nn(-c2nc(O[C@@H](C)C(F)(F)F)c(C(=O)Nc3cnsc3)cc2F)c1=O [Example 12, (S)-6-(4-Ethyl-3-(hydroxymethyl)-5-oxo-4,5-dihydro-1H-1,2,4-triazol-1-yl)-5-fluoro-N-(isothiazol-4-yl)-2-((1,1,1-trifluoropropan-2-yl)oxy)nicotinamide]
12 | > 8.77 | 9.70 | CCn1c(COC)nn(-c2nc(O[C@@H](C)C(F)(F)F)c(C(=O)Nc3c(F)cccc3Cl)cc2F)c1=O [Example 14, (S)-N-(2-Chloro-6-fluorophenyl)-6-(4-ethyl-3-(methoxymethyl)-5-oxo-4,5-dihydro-1H-1,2,4-triazol-1-yl)-5-fluoro-2-((1,1,1-trifluoropropan-2-yl)oxy)nicotinamide]
13 | 6.13 | < 6.00 | CCn1c(CO)nn(-c2nc(O[C@@H](C)C(F)(F)F)c(C(=O)Nc3ccnnc3Cl)cc2F)c1=O [Example 16, (S)-N-(3-Chloropyridazin-4-yl)-6-(4-ethyl-3-(hydroxymethyl)-5-oxo-4,5-dihydro-1H-1,2,4-triazol-1-yl)-5-fluoro-2-((1,1,1-trifluoropropan-2-yl)oxy)nicotinamide]
14 | 7.39 | 7.29 | CCn1c(CO)nn(-c2nc(O[C@@H](C)C(F)(F)F)c(C(=O)Nc3nccnc3Cl)cc2F)c1=O [Example 19, (S)-N-(3-Chloropyrazin-2-yl)-6-(4-ethyl-3-(hydroxymethyl)-5-oxo-4,5-dihydro-1H-1,2,4-triazol-1-yl)-5-fluoro-2-((1,1,1-trifluoropropan-2-yl)oxy)nicotinamide]
15 | 8.82 | 6.35 | CCn1c(CO)nn(-c2nc(O[C@@H](C)C(F)(F)F)c(C(=O)Nc3c(Cl)c[nH]c(=O)c3Cl)cc2F)c1=O [Example 22, (S)-N-(3,5-Dichloro-2-oxo-1H-pyridin-4-yl)-6-[4-ethyl-3-(hydroxymethyl)-5-oxo-1,2,4-triazol-1-yl]-5-fluoro-2-[(1S)-2,2,2-trifluoro-1-methyl-ethoxy]pyridine-3-carboxamide]
16 | 7.87 | 7.05 | CCn1c(CO)nn(-c2nc(O[C@@H](C)C(F)(F)F)c(C(=O)Nc3[nH]c(=O)ccc3Cl)cc2F)c1=O [Example 23, (S)-N-(3-chloro-6-oxo-1,6-dihydropyridin-2-yl)-6-(4-ethyl-3-(hydroxymethyl)-5-oxo-4,5-dihydro-1H-1,2,4-triazol-1-yl)-5-fluoro-2-((1,1,1-trifluoropropan-2-yl)oxy)nicotinamide]
17 | 6.97 | < 7.00 | CCn1c(CO)nn(-c2nc(O[C@@H](C)C(F)(F)F)c(C(=O)Nc3snc(C)c3Cl)cc2F)c1=O [Example 26, (S)-N-(4-Chloro-3-methylisothiazol-5-yl)-6-(4-ethyl-3-(hydroxymethyl)-5-oxo-4,5-dihydro-1H-1,2,4-triazol-1-yl)-5-fluoro-2-((1,1,1-trifluoropropan-2-yl)oxy)nicotinamide]

Source: US20220089568A1 (Janssen Biotech, Inc., priority 2019, published 2022)
